Like-named read-outs stand apart in the source and are kept apart here.
What was measured:
[1] = test system: P. falciparum 3D7 parasites; test: P. falciparum growth inhibition assay, 1-cycle (72 h treatment), SYBR DNA staining (library screen at 2 μg/mL and dose-response); format: cell-based, Plasmodium falciparum; conditions: for Pf_72h_%Growth_Rep1 / Pf_72h_%Growth_Rep2: % growth; for activity at 2 µg/mL: Plasmodium falciparum, 3D7, screen at 2 μg/mL
[2] = test system: P. falciparum 3D7 parasites; test: P. falciparum growth inhibition assay, 2-cycle (120 h treatment), delayed-death screen and dose-response; format: cell-based, Plasmodium falciparum; conditions: for Pf_120h_%Growth_Rep1 / Pf_120h_%Growth_Rep2: % growth; for activity at 2 µg/mL: Plasmodium falciparum, 3D7, screen at 2 μg/mL
[3] = test system: T. gondii RH strain (RH-Tub-eYFP) tachyzoites; test: microbe, parasite or virus in culture; format: cell-based, Toxoplasma gondii; conditions: 72 h; for Tg_72h_%Growth_Rep1 / Tg_72h_%Growth_Rep2: % growth; for percent parasite growth at 2 µg/mL: Toxoplasma gondii, screen at 2 μg/mL
[4] = library screen at 2 μg/mL, 72 h, replicate 1
[5] = library screen at 2 μg/mL, 72 h, replicate 2
[6] = library screen at 2 μg/mL, 120 h, replicate 1
[7] = library screen at 2 μg/mL, 120 h, replicate 2
[8] = library screen at 2 μg/mL, replicate 1
[9] = library screen at 2 μg/mL, replicate 2
[10] = P. falciparum, 72 h, parasite screen 2 μg/mL, replicate 1
[11] = P. falciparum, 72 h, parasite screen 2 μg/mL, replicate 2
[12] = P. falciparum, 120 h, parasite screen 2 μg/mL, replicate 1
[13] = P. falciparum, 120 h, parasite screen 2 μg/mL, replicate 2
[14] = T. gondii, parasite screen 2 μg/mL, replicate 1
[15] = T. gondii, parasite screen 2 μg/mL, replicate 2
[16] = P. falciparum 3D7, 72 h, parasite screen at 2 μg/mL, replicate 1
[17] = P. falciparum 3D7, 72 h, parasite screen at 2 μg/mL, replicate 2
[18] = P. falciparum 3D7, 120 h, parasite screen at 2 μg/mL, replicate 1
[19] = P. falciparum 3D7, 120 h, parasite screen at 2 μg/mL, replicate 2
[20] = T. gondii, parasite screen at 2 μg/mL, replicate 1
[21] = T. gondii, parasite screen at 2 μg/mL, replicate 2

Structure (SMILES)	Pf_72h_%Growth_Rep1 [1, 4] [%]	Pf_72h_%Growth_Rep2 [1, 5] [%]	Pf_120h_%Growth_Rep1 [2, 6] [%]	Pf_120h_%Growth_Rep2 [2, 7] [%]	Tg_72h_%Growth_Rep1 [3, 8] [%]	Tg_72h_%Growth_Rep2 [3, 9] [%]	further results
CC(C)CCC[C@@H](C)[C@@H]1CC[C@]2(C)C3=C(CC[C@@]12C)[C@@]1(C)CC[C@H](O)C(C)(C)[C@@H]1CC3 [Dihydroeuphol]	82.89	91.07	82.20	96.98	139.10	102.23	–
CO[C@@H]1[C@H](N(C)C(=O)c2ccccc2)C[C@H]2O[C@]1(C)n1c3ccccc3c3c4c(c5c6ccccc6n2c5c31)C(=O)NC4=O [Stauprimide]	–	–	–	–	–	–	Pf_72h_%Growth_Rep1 [1, 10]: 1.11%; Pf_72h_%Growth_Rep2 [1, 11]: -9.03%; Pf_120h_%Growth_Rep1 [2, 12]: 32.82%; Pf_120h_%Growth_Rep2 [2, 13]: 11.28%; Tg_72h_%Growth_Rep1 [3, 14]: 9.90%; Tg_72h_%Growth_Rep2 [3, 15]: 20.75%
CC[C@H](C)[C@H]1O[C@]2(C=C[C@@H]1C)C[C@@H]1C[C@@H](C/C=C(\C)[C@@H](O)[C@@H](C)/C=C/C=C3\CO[C@@H]4[C@H](O)C(C)=C[C@@H](C(=O)O1)[C@]34O)O2 [Avermectin B1a aglycone]	81.70	78.59	81.78	74.45	137.71	97.71	–
CC(=O)O[C@@H]1C[C@]2(C)[C@@]3(CO)[C@H](O)C(=O)C(C)=C[C@H]3O[C@H]1[C@@]21CO1 [Acetyldeoxynivalenol, 3-]	11.16	9.81	14.50	5.88	4.23	6.65	–
COc1cc2c(c3oc4cccc(O)c4c(=O)c13)[C@@H]1C=CO[C@@H]1O2 [Sterigmatocystin]	–	–	–	–	–	–	Pf_72h_%Growth_Rep1 [1, 10]: 4.81%; Pf_72h_%Growth_Rep2 [1, 11]: 2.16%; Pf_120h_%Growth_Rep1 [2, 12]: 5.33%; Pf_120h_%Growth_Rep2 [2, 13]: 4.61%; Tg_72h_%Growth_Rep1 [3, 14]: 117.93%; Tg_72h_%Growth_Rep2 [3, 15]: 89.47%
Cc1cc(O)cc(O)c1C(=O)O [BIA-O1657]	–	–	–	–	–	–	Pf_72h_%Growth_Rep1 [1, 16]: 83.41%; Pf_72h_%Growth_Rep2 [1, 17]: 79.75%; Pf_120h_%Growth_Rep1 [2, 18]: 95.39%; Pf_120h_%Growth_Rep2 [2, 19]: 131.31%; Tg_72h_%Growth_Rep1 [3, 20]: 114.94%; Tg_72h_%Growth_Rep2 [3, 21]: 95.01%
COC(=O)/C(=C1/OC(=O)C(c2ccccc2)=C1O)c1ccccc1 [Vulpinic acid]	–	–	–	–	–	–	activity at 2 µg/mL ([1]; P. falciparum, 72 h, replicate 1, read-out: Pf_72h_%Growth_Rep1): 79.7%; activity at 2 µg/mL ([1]; P. falciparum, 72 h, replicate 2, read-out: Pf_72h_%Growth_Rep2): 129%; activity at 2 µg/mL ([2]; P. falciparum, 120 h, replicate 1, read-out: Pf_120h_%Growth_Rep1): 84.9%; activity at 2 µg/mL ([2]; P. falciparum, 120 h, replicate 2, read-out: Pf_120h_%Growth_Rep2): 103%; percent parasite growth at 2 µg/mL ([3]; T. gondii, replicate 1, read-out: Tg_72h_%Growth_Rep1): 109%; percent parasite growth at 2 µg/mL ([3]; T. gondii, replicate 2, read-out: Tg_72h_%Growth_Rep2): 97.7%
CO[C@@H]1[C@@H](O)[C@@H](O)[C@@H](Oc2ccc3c(O)c(NC(=O)c4ccc(O)c(CC=C(C)C)c4)c(=O)oc3c2C)OC1(C)C [Descarbamylnovobiocin]	85.51	80.09	85.93	82.51	154.63	96.44	–
CCCCCCCCCCCCCCCCCC(=O)N[C@H]1CCOC1=O [BIA-O1501]	–	–	–	–	–	–	Pf_72h_%Growth_Rep1 [1, 16]: 84.33%; Pf_72h_%Growth_Rep2 [1, 17]: 54.35%; Pf_120h_%Growth_Rep1 [2, 18]: 92.72%; Pf_120h_%Growth_Rep2 [2, 19]: 140.11%; Tg_72h_%Growth_Rep1 [3, 20]: 147.08%; Tg_72h_%Growth_Rep2 [3, 21]: 83.28%
CC(=O)OCc1c(O)c2c(c3c1OC(=O)c1c(C)cc(O)c(C=O)c1O3)C(O)OC2=O (stereo not drawn) [Galbinic acid]	88.09	110.75	99.54	110.27	125.30	103.13	–

— paper PMC12396409, “Screening and hit evaluation of a microbial metabolite library against the pathogenic Plasmodium falciparum and Toxoplasma gondii parasites” (International Journal for Parasitology: Drugs and Drug …, 2025)
